Calls of active or inactive are those of the source. No cut-off for these calls is given here.
Tests used:
[1] = system: Mus musculus; assay: (§1) Anti-inflammatory activity against MOG35-55-induced experimental autoimmune encephalomyelitis C57BL/6 mouse model assessed as reduction in EAE symptoms by measuring reduction in paralysis of hind limbs at 300 to 600 mg/kg/day, ig for 14 days starting from 12th day of immunization; format: functional, organism-based; settings: dose 300-600 mg/kg/day, time 14.0 day
[2] = system: Mus musculus; assay: Anti-inflammatory activity against MOG35-55-induced experimental autoimmune encephalomyelitis C57BL/6 mouse model assessed as methylation of CpG sites of CXCL14 gene promoter in brain at 600 mg/kg, ig for 14 days starting from 12th day of immunization by PCR analysis (reference value: 46.5 +/-6%); format: functional; settings: time 14 day
[3] = system: Mus musculus; assay: as §1, with “cumulative scores” for “paralysis of hind limbs”, “at” for “at 300 to”, “immunization and measured from day 12 to 38 post-immunization” for “immunization”; format: functional, organism-based; settings: time 1-26 day
[4] = system: Mus musculus; assay: Anti-inflammatory activity against MOG35-55-induced experimental autoimmune encephalomyelitis C57BL/6 mouse model assessed as methylation of CpG sites of IL13 gene promoter in brain at 600 mg/kg, ig for 14 days starting from 12th day of immunization by PCR analysis (reference value: 57.3 +/-8%); format: functional; settings: time 14 day
[5] = system: Mus musculus; assay: Anti-inflammatory activity against MOG35-55-induced experimental autoimmune encephalomyelitis C57BL/6 mouse model assessed as fold change in C1S gene expression in brain at 600 mg/kg/day, ig for 14 days starting from 12th day of immunization by RT-qPCR analysis relative to control; format: functional; settings: time 14 day
[6] = system: Mus musculus; assay: Anti-inflammatory activity against MOG35-55-induced experimental autoimmune encephalomyelitis C57BL/6 mouse model assessed as reduction in serum […] cytokine level by measuring reduction in IL-17 level at 600 mg/kg/day, ig for 14 days starting from 12th day of immunization by ELISA; format: functional, organism-based; settings: time 14.0 day
[7] = system: Mus musculus; assay: Anti-inflammatory activity against MOG35-55-induced experimental autoimmune encephalomyelitis C57BL/6 mouse model assessed as fold change in MMP9 gene expression in brain at 300 mg/kg/day, ig for 14 days starting from 12th day of immunization by RT-qPCR analysis relative to control; format: functional; settings: time 14 day
[8] = system: Mus musculus; assay: Anti-inflammatory activity against MOG35-55-induced experimental autoimmune encephalomyelitis C57BL/6 mouse model assessed as fold change in MBP gene expression in brain at 300 mg/kg/day, ig for 14 days starting from 12th day of immunization by RT-qPCR analysis relative to control; format: functional; settings: time 14 day
[9] = system: Mus musculus; assay: Anti-inflammatory activity against MOG35-55-induced experimental autoimmune encephalomyelitis C57BL/6 mouse model assessed as increase in brain IL-10 level at 600 mg/kg/day, ig for 14 days starting from 12th day of immunization by ELISA; format: functional, organism-based; settings: time 14.0 day
[10] = system: Mus musculus; assay: Anti-inflammatory activity against MOG35-55-induced experimental autoimmune encephalomyelitis C57BL/6 mouse model assessed as fold change in TNF-alpha gene expression in brain at 600 mg/kg/day, ig for 14 days starting from 12th day of immunization by RT-qPCR analysis relative to control; format: functional; settings: time 14 day
[11] = system: Mus musculus; assay: Anti-inflammatory activity against MOG35-55-induced experimental autoimmune encephalomyelitis C57BL/6 mouse model assessed as reduction in TNF-alpha protein expression in brain at 300 to 600 mg/kg/day, ig for 14 days starting from 12th day of immunization by western blot analysis; format: functional, organism-based; settings: dose 300-600 mg/kg/day, time 14.0 day
[12] = system: Mus musculus; assay: Anti-inflammatory activity against MOG35-55-induced experimental autoimmune encephalomyelitis C57BL/6 mouse model assessed as fold change in APP gene expression in brain at 600 mg/kg/day, ig for 14 days starting from 12th day of immunization by RT-qPCR analysis relative to control; format: functional; settings: time 14 day
[13] = system: Mus musculus; assay: Anti-inflammatory activity against MOG35-55-induced experimental autoimmune encephalomyelitis C57BL/6 mouse model assessed as fold change in C1S gene expression in brain at 300 mg/kg/day, ig for 14 days starting from 12th day of immunization by RT-qPCR analysis relative to control; format: functional; settings: time 14 day
[14] = system: Mus musculus; assay: Anti-inflammatory activity against MOG35-55-induced experimental autoimmune encephalomyelitis C57BL/6 mouse model assessed as fold change in HIF1A gene expression in brain at 600 mg/kg/day, ig for 14 days starting from 12th day of immunization by RT-qPCR analysis relative to control; format: functional; settings: time 14 day
[15] = system: Mus musculus; assay: Anti-inflammatory activity against MOG35-55-induced experimental autoimmune encephalomyelitis C57BL/6 mouse model assessed as fold change in TGFB1 gene expression in brain at 0.3 mg/kg/day, ig for 14 days starting from 12th day of immunization by RT-qPCR analysis relative to control; format: functional; settings: time 14 day
[16] = system: Mus musculus; assay: Anti-inflammatory activity against MOG35-55-induced experimental autoimmune encephalomyelitis C57BL/6 mouse model assessed as fold change in NFKB gene expression in brain at 0.3 mg/kg/day, ig for 14 days starting from 12th day of immunization by RT-qPCR analysis relative to control; format: functional; settings: time 14 day
[17] = system: Mus musculus; assay: Anti-inflammatory activity against MOG35-55-induced experimental autoimmune encephalomyelitis C57BL/6 mouse model assessed as methylation of CpG sites of SOCS5 gene promoter in brain at […], ig for 14 days starting from 12th day of immunization by PCR analysis (reference value: 10.6 +/-4%); format: functional; settings: time 14 day
[18] = system: Mus musculus; assay: Anti-inflammatory activity against MOG35-55-induced experimental autoimmune encephalomyelitis C57BL/6 mouse model assessed as methylation of CpG sites of IL13 gene promoter in brain at […], ig for 14 days starting from 12th day of immunization by PCR analysis (reference value: 57.3 +/-8%); format: functional; settings: time 14 day
[19] = system: Mus musculus; assay: Anti-inflammatory activity against MOG35-55-induced experimental autoimmune encephalomyelitis C57BL/6 mouse model assessed as fold change in C1S gene expression in brain at 0.15 mg/kg/day, ig for 14 days starting from 12th day of immunization by RT-qPCR analysis relative to control; format: functional; settings: time 14 day
[20] = system: Mus musculus; assay: Anti-inflammatory activity against MOG35-55-induced experimental autoimmune encephalomyelitis C57BL/6 mouse model assessed as fold change in CXCL9 gene expression in brain at 0.15 mg/kg/day, ig for 14 days starting from 12th day of immunization by RT-qPCR analysis relative to control; format: functional; settings: time 14 day
[21] = system: Mus musculus; assay: Anti-inflammatory activity against MOG35-55-induced experimental autoimmune encephalomyelitis C57BL/6 mouse model assessed as fold change in MMP9 gene expression in brain at 0.15 mg/kg/day, ig for 14 days starting from 12th day of immunization by RT-qPCR analysis relative to control; format: functional; settings: time 14 day
[22] = system: Mus musculus; assay: Anti-inflammatory activity against MOG35-55-induced experimental autoimmune encephalomyelitis C57BL/6 mouse model assessed as fold change in STAT3 gene expression in brain at 0.3 mg/kg/day, ig for 14 days starting from 12th day of immunization by RT-qPCR analysis relative to control; format: functional; settings: time 14 day
[23] = system: Mus musculus; assay: Anti-inflammatory activity against MOG35-55-induced experimental autoimmune encephalomyelitis C57BL/6 mouse model assessed as fold change in CD4 gene expression in brain at 0.15 mg/kg/day, ig for 14 days starting from 12th day of immunization by RT-qPCR analysis relative to control; format: functional; settings: time 14 day

CCCCCCCCCCCCCCCCCCCCCCCCC(=O)O[C@H]1CC[C@]2(C)[C@H]3CC=C4[C@@H]5CC(C)(C)CC[C@]5(CO)CC[C@@]4(C)[C@]3(C)CC[C@H]2C1(C)C
Activity [1]: Active
Activity [2]: 65.3%
Activity [3]: Active
Activity [4]: 47.9%
fold change (FC) [5]: 1.98
Activity [6]: Active
fold change (FC) [7]: 1.42
fold change (FC) [8]: 1.01
Activity [9]: Active
fold change (FC) [10]: 1.52
Activity [11]: Active
fold change (FC) [12]: 1.28
fold change (FC) [13]: 1.63
fold change (FC) [14]: 1.77

CCCCCCCCc1ccc(CCC(N)(CO)CO)cc1 [FINGOLIMOD]
fold change (FC) [15]: 10.7
fold change (FC) [16]: 1.98
Activity [17]: 8.8%
Activity [18]: 33.1%
fold change (FC) [19]: 1.91
fold change (FC) [20]: 2.86
fold change (FC) [21]: 2.43
fold change (FC) [22]: 1.87
fold change (FC) [23]: 3.06

From ChEMBL document CHEMBL5226375, “Synthesis and Comprehensive in Vivo Activity Profiling of Olean-12-en-28-ol, 3β-Pentacosanoate in Experimental Autoimmune Encephalomyelitis: A Natural Remyelinating and Anti-Inflammatory Agent” (J Nat Prod, 2023)
